For data set [1], the system named is PC3 prostate cancer cells. Description: Three dimensional cell growth inhibitory assay (cellular spheres, MTT, microscopy): PC3. It is filed as cell-based, human. Particulars: Homo sapiens. The method, then:
For the three dimensional assay, cells in the logarithmic phase were cultured in 50% Matrigel-containing complete medium in 96-well plates at 37° C. with 5% CO2 for five days incubation, and treated with appropriate concentrations of test compounds for three generative times. Images of spheroids were taken under a microscope, and spheroid cell survival was determined by MTT assays.
The cells (in the 2D culture) and the cellular spheres (in the 3D culture) were treated with test compounds for 72 hours, and then subjected to the MTT colorimetric assay. Each value represents the mean of three independent experiments. Cellular spheres formed in semi-solid and drug effect on cellular spheres were examined using phase-contrast light microscopy.
More specifically, cellular spheres formed in semi-solid and drug effect on cellular spheres were examined using phase-contrast light microscopy. 3D structures of cells were analyzed using 4× magnification, 10× magnification, and 20× magnification.

In data set [2] the test system is PC3 prostate cancer cells. Description: Two dimensional cell growth inhibitory assay (MTT): PC3. The note with it: Homo sapiens.
Description: For the two dimensional assay, cancel cells in the logarithmic phase were cultured in complete medium in 96-well plates at 37° C. with 5% CO2 for overnight incubation, and treated with various concentrations of test compounds for three generative times. Cells were then incubated with a serum free medium containing 3-(4,5-dimethylthiazol-2-yl)-2,5-diphenyltetrazolium bromide (MTT) at a final concentration of 0.5 mg/mM for four hours. MTT was converted to formazan by metabolically viable cells. Formazan was then solublized in 50% DMF solution containing 20% SDS at 37° C. overnight. Absorbance was measured at 570 nm using a spectramax M5 microplate reader (Molecular Devices, UK).
For data set [3], the system named is histone and α-tubulin acetylation in PC3 cells. Description: Western blot: acetylation in PC3 cells. The format is cell-based, human. Particulars: concentration-dependent. How it is done:
More specifically, cells in the logarithmic phase were initially seeded at a density of 1×10^6 in 100 mm^2 dishes. […] Briefly, cells were lysed with the cell lysis reagent CelLytic™ M (Sigma-Aldrich) containing 1 mM DTT, 1 mM PMSF and protease inhibitors for whole-cell lysate preparation. Equal amounts of lysate (on a protein basis) were then differentiated using the SDS-PAGE, blotted on PVDF membranes, conjugated with various specific primary antibodies, and then probed with appropriate secondary antibodies. The immunoreactive bands were detected using the ECL method and visualized on Kodak Bio-MAX MR film.
Proteins from cells were extracted and subjected to the western blotting analysis. β-Actin was used as an internal control. The deacetylase enzyme assay was based on a homogeneous fluorescence release assay. […] After fluorophore from the deacetylated substrates, fluorescent signal was detected.

The subject of data set [4] is histone and a-tubulin acetylation in human DU145 cells. Description: Western blot: acetylation in DU145 cells. The format is cell-based. The method, then: More specifically, cells in the logarithmic phase were initially seeded at a density of 1×10^6 in 100 mm^2 dishes. […] IC50 indicia of compound in vitro potency) for the indicated times (i.e., 24 and 48 hours), adherent cells were collected for protein extract preparation. Briefly, cells were lysed with the cell lysis reagent CelLytic™ M (Sigma-Aldrich) containing 1 mM DTT, 1 mM PMSF and protease inhibitors for whole-cell lysate preparation. Equal amounts of lysate (on a protein basis) were then differentiated using the SDS-PAGE, blotted on PVDF membranes, conjugated with various specific primary antibodies, and then probed with appropriate secondary antibodies. The immunoreactive bands were detected using the ECL method and visualized on Kodak Bio-MAX MR film. Proteins from cells were extracted and subjected to the western blotting analysis. β-Actin was used as an internal control. The deacetylase enzyme assay was based on a homogeneous fluorescence release assay. […] After fluorophore from the deacetylated substrates, fluorescent signal was detected.

For data set [5], the system named is androgen-independent PC3 prostate cancer cells. Description: Cell cycle analysis. It is filed as cell-based, human. Particulars: androgen-independent PC3 prostate cancer cells. How it is done: More specifically, cells in the logarithmic phase were initially seeded at a density of 1×10^6 in 100 mm^2 dishes. After treatment with various concentrations of test compounds for the indicated times, cells were trypsinized, washed with PBS, and fixed in 70% ethanol. The fixed cells were then treated with 50 μg/mL RNase and stained with 50 μg/mL propidium iodide at room temperature for 20 minutes. The DNA content was determined by BD FACS Calibur flow cytometry system (BD Biosciences). For each analysis, 10,000 cells were counted, and the percentage of cells in each phase was calculated using ModFit LT software (Verity Software House, Inc.).

For another data set, the system named is WI-38 (normal: lung). Description: IC50 against cell lines: WI-38. Particulars: Homo sapiens, WI-38, read-out: IC50 ± SD against human cancer cell lines.
Data set [6] deals with Detroit551 (normal: fibroblast). Description: IC50 against cell lines: Detroit551. Particulars: Homo sapiens, Detroit 551, read-out: IC50 ± SD against human cancer cell lines.
A further data set relates to KB-7D (KB resistant). Description: IC50 against human cancer cell lines: KB-7D. Particulars: KB7D, read-out: IC50 ± SD against human cancer cell lines.
In another data set the test system is KB-L30 (KB-resistant). Description: IC50 against human cancer cell lines: KB-L30. Particulars: read-out: IC50 ± SD against human cancer cell lines.
The subject of data set [7] is DU-145 (prostate carcinoma). Description: IC50 against human cancer cell lines: DU-145. Particulars: DU-145, read-out: IC50 ± SD against human cancer cell lines.
Description: (§1) More specifically, the IC50 values of test compounds were determined by carrying out a fluorimetric histone deacetylase assay following the manufacturer's instructions. For a pan-HDAC assay, HeLa nuclear extracts were used as a source of histone deacetylase (BioVision Inc.). Histone deacetylase isomer inhibition assays were conducted using purified recombinant histone deacetylase proteins of the various isomers (BPS Bioscience Inc.). Reactions were performed in 0.1 mol/L KCl, 20 mmol/L HEPES/NaOH at pH 7.9, 20% glycerol, 0.2 mmol/L DTA, 0.5 mmol/L DTT, and 0.5 mmol/L phenylmethylsulfonylfluoride. […] Reactions were carried out in triplicate for each test compound. Each point represented the mean±SD of replicates.
In the next data set the test system is KB-VIN10 (KB resistant). Description: IC50 against human cancer cell lines: KB-VIN10.
Data set [8] concerns LNCaP-R1 (prostate carcinoma). Description: IC50 against human cancer cell lines: LNCaP-R1. The note with it: read-out: IC50 ± SD against human cancer cell lines.
Description: as §1
In data set [9] the test system is LNCaP-R2 (prostate carcinoma). Description: IC50 against human cancer cell lines: LNCaP-R2. Particulars: read-out: IC50 ± SD against human cancer cell lines.
Data set [10] relates to MDA-MB-231 (breast carcinoma). Description: IC50 against human cancer cell lines: MDA-MB-231. Particulars: MDA-MB-231, read-out: IC50 ± SD against human cancer cell lines.
Description: as §1
The test system of data set [11] is KB cell line (oral carcinoma). Description: IC50 in human cancer cell lines (inhibiting HDAC): KB. Particulars: Homo sapiens.
For a further data set, the system named is PC3 (prostate carcinoma). Description: IC50 in human cancer cell lines (inhibiting HDAC): PC3. Particulars: read-out: IC50 ± SD against human cancer cell lines.
Data set [12] deals with H460 (non-small-cell lung carcinoma). Description: IC50 in human cancer cell lines (inhibiting HDAC): H460. Particulars: NCI-H460, read-out: IC50 ± SD against human cancer cell lines.
The next data set relates to MCF-7 (breast carcinoma). Description: IC50 in human cancer cell lines (inhibiting HDAC): MCF-7. Particulars: MCF7, read-out: IC50 ± SD against human cancer cell lines.
Data set [13] has as its system HT-29 (colorectal carcinoma). Description: IC50 in human cancer cell lines (inhibiting HDAC): HT-29. The note with it: HT-29, read-out: IC50 ± SD against human cancer cell lines.
Another data set has as its system C6 glioma cell line. Description: Cell death in C6 glioma in vitro (LDH assay). The format is cell-based. The note with it: rat C6 glioma, 30 uM, after 3 days. How it is done:
Cell death was analyzed by a lactate dehydrogenase (LDH) assay. The culture medium was centrifuged after the experiment and the activity of LDH released into culture media was detected with a LDH cytotoxicity detection kit (Roche). The percentage of cytotoxicity was determined by the equation: [(Experimental group−Control group)/(Triton-100-treated group (100% maximal death)−Control group)]×100%.

For data set [14], the system named is A549 (non-small-cell lung carcinoma). Description: IC50 in human cancer cell lines (inhibiting HDAC): A549. Particulars: read-out: IC50, inhibiting HDAC in human cancer cell lines; A549, non-small-cell lung carcinoma.
The mark [15] stands for this setting: Table 6, cell line not given, read-out: IC50 value 3D Culture.
[16] abbreviates: read-out: IC50 value 2D Culture.
Setting [17] is: read-out: IC50, inhibiting HDAC in human cancer cell lines, KB, oral carcinoma.

SMILES strings stand for the structures. Where two headings read alike, the source gives them in different places.

Description for KB-7D (KB resistant): as §1
Description for KB-L30 (KB-resistant): as §1

On to `CC[C@]1(O)C[C@H]2CN(CCc3c([nH]c4ccccc34)[C@@](C(=O)OC)(c3cc4c(cc3OC)N(C=O)[C@H]3[C@@](O)(C(=O)OC)[C@H](OC(C)=O)[C@]5(CC)C=CCN6CC[C@]43[C@@H]65)C2)C1` [Vincristine], for which the IC50 was 2.5 ± 0.71 nM in [1] (setting [15]), 2.5 ± 0.71 nM in [1] (read-out: 3D Culture), 0.75 ± 0.64 nM in data set [2] (read-out: 2D Culture) and 0.75 ± 0.64 nM in data set [2] (setting [16]).

With `O=C(/C=C/c1cnc2c(ccn2S(=O)(=O)c2ccccc2)c1)NO` [Compound 14a, (E)-N-hydroxy-3-(1-(phenylsulfonyl)-1H-pyrrolo[2,3-b]pyridin-5-yl)acrylamide], the “histone and α-tubulin acetylation” value in data set [3] is “induced histone and α-tubulin acetylation”. Also, the “histone and a-tubulin acetylation” value in data set [4] is “induced histone and a-tubulin acetylation”. Besides, the “cell cycle arrest and apoptosis” value in data set [5] was “induced cell cycle arrest and apoptosis”. For the same molecule, the IC50 in the data set on WI-38 (normal: lung) is above 1000 nM; in [6] it was above 1000 nM; in the data set on KB-7D (KB resistant) it was 276 ± 78.4 nM; in the data set with KB-L30 (KB-resistant) it was 445 ± 249 nM; in [7] it was 420 ± 170 nM; in the data set with KB-VIN10 (KB resistant) (Homo sapiens, KB-VIN10, read-out: IC50 ± SD against human cancer cell lines), 213 nM. The IC50 in data set [8] amounted to 156 ± 40 nM; in [9], 141 ± 50 nM; in [10] it was 184 ± 50 nM; in data set [11] (read-out: IC50 ± SD against human cancer cell lines, KB, oral carcinoma), 252 ± 58.5 nM; in the data set with PC3 (prostate carcinoma), 380 ± 220 nM; in data set [12], 243 ± 70.4 nM. The IC50 came out at 170 ± 55 nM with MCF-7 (breast carcinoma) and 182 ± 26.7 nM in data set [13].

As for `CC(=O)O[C@H]1C(=O)[C@@]2(C)[C@H]([C@H](OC(=O)c3ccccc3)[C@]3(O)C[C@H](OC(=O)[C@H](O)[C@@H](NC(=O)c4ccccc4)c4ccccc4)C(C)=C1C3(C)C)[C@]1(OC(C)=O)CO[C@@H]1C[C@@H]2O` [Paclitaxel], the IC50 turned out to be 5850 ± 70 nM in data set [1] (setting [15]), 5850 nM in [1] (read-out: 3D Culture), 0.2 ± 0.1 nM in [2] (read-out: 2D Culture) and 0.2 ± 0.1 nM in data set [2] (setting [16]).

In turn, `O=C(/C=C/c1ccc(S(=O)(=O)n2ccc3ncccc32)cc1)NO` [Compound 10, (E)-3-(4-(1H-Pyrrolo[3,2-b]pyridin-1-ylsulfonyl)phenyl)-N-hydroxyacrylamide] gave a melting point of 188 to 190 °C. Also, the IC50 in [11] (setting [17]) was below 6000 nM.

As for `Nc1ccccc1NC(=O)c1ccc(Cn2ccc3cnccc32)cc1` [Compound 18, 4-((1H-Pyrrolo[3,2-c]pyridin-1-yl)methyl)-N-(2-aminophenyl)benzamide], the melting point fell in the range of 165 to 167 °C. In addition, in [11] (setting [17]), the IC50 was below 6000 nM.

Molecule `O=C(/C=C/c1cccc(S(=O)(=O)N2CCc3ccccc32)c1)NO` [Compound 2, (E)-N-hydroxy-3-(3-(indolin-1-ylsulfonyl)phenyl)acrylamide] had a melting point of 207 to 209 °C. Further, the IC50 in [11] (setting [17]) was below 6000 nM.

As to `O=C(/C=C/c1ccc(S(=O)(=O)n2ccc3ccncc32)cc1)NO` [Compound 11, (E)-3-(4-(1H-Pyrrolo[2,3-c]pyridin-1-ylsulfonyl)phenyl)-N-hydroxyacrylamide], the melting point was in the range of 167 to 169 °C. The IC50 in [11] (setting [17]) is below 6000 nM.

With `O=C(CCCCCCC(=O)Nc1ccccc1)NO` [SAHA, reference compound], the “induction of cell death (LDH)” value in the data set on C6 glioma cell line is “about 70%”. The IC50 with KB-VIN10 (KB resistant) (read-out: IC50 ± SD against human cancer cell lines, KB-VIN10, KB resistant) worked out at 1850 ± 526 nM; in data set [14], 1540 ± 80 nM.

On to `Nc1ccccc1NC(=O)c1ccc(Cn2ccc3ncccc32)cc1` [Compound 17, 4-((1H-Pyrrolo[3,2-b]pyridin-1-yl)methyl)-N-(2-aminophenyl)-benzamide], for which the melting point lay within 116 to 118 °C. In addition, the IC50 in data set [11] (setting [17]) is below 6000 nM.

Consider `COc1cccc2c1C(=O)c1c(O)c3c(c(O)c1C2=O)C[C@@](O)(C(=O)CO)C[C@@H]3O[C@H]1C[C@H](N)[C@H](O)[C@H](C)O1` [Adriamycin], for which the IC50 is 720 ± 40 nM in [1] (setting [15]), 720 ± 40 nM in data set [1] (read-out: 3D Culture), 70 ± 30 nM in data set [2] (read-out: 2D Culture) and 70 ± 30 nM in [2] (setting [16]).

On to `Nc1ccccc1NC(=O)c1ccc(Cn2ncc3ccccc32)cc1` [Compound 16, 4-((1H-Indazol-1-yl)methyl)-N-(2-aminophenyl)benzamide], for which the melting point lay within 185 to 188 °C. For the same molecule, the IC50 in [11] (setting [17]) was below 6000 nM.

These data come from patent US10246455B2, “Histone deacetylase inhibitors” (Taipei Medical University, priority 2014, dated 2019).
